According to US20170073679A1, “Compositions and Methods for Selective Delivery of Oligonucleotide Molecules to Cell Types” (nLife Therapeutics, S.L., priority 2012, published 2017):
d = 2'-deoxy (DNA); m = 2'-O-methyl

Columns and labels:
[1] = target: human recombinant GHS-R1a (Homo sapiens, UniProt Q92847); conditions: cited from earlier work
rat pituitary cells = conditions: read-out: EC50, stimulates GH release; cited from earlier work
[2] = test system: obese animals (high fat diet); assay: Physiological effect of tabimorelin conjugated antisense oligonucleotides in a high-fat diet model of obesity; assay type: in vivo; conditions: 10 doses in 12 days of 30 μg intranasally
Experimental: Animals were fed a high fat diet (HFD) (TD.06414, 60% fat, Harlan) or a standard diet (Control diet: 2014, Harlan) for 12 weeks. Those obese animals that weighed more than the mean body weight of the lean animals plus 2 times the lean standard deviation were selected:
Obese BW>lean BW mean+2×lean SD
The day of administration animals were fasted for 8 hours. Under isofluorane anesthesia, 10 doses in 12 days of 30 μg of the following molecules were intranasally administered (5 μl per nostril): • Vehicle (VH) (1×PBS) • TAB-NS-ASO4 (NS)(Non-sense sequence directed with tabimorelin) • TAB-SOCS3-ASO4 (SOCS3)(antisense sequence against socs3 mRNA directed with tabimorelin) • TAB-PTP1B-ASO4 (PTP1B)(antisense sequence against ptp1b mRNA directed with tabimorelin
Body weight and food intake were daily monitored. 48 hours after the last administration animals were sacrificed and tissues collected for further analysis.

Chain of human recombinant GHS-R1a (Q92847 whole entry): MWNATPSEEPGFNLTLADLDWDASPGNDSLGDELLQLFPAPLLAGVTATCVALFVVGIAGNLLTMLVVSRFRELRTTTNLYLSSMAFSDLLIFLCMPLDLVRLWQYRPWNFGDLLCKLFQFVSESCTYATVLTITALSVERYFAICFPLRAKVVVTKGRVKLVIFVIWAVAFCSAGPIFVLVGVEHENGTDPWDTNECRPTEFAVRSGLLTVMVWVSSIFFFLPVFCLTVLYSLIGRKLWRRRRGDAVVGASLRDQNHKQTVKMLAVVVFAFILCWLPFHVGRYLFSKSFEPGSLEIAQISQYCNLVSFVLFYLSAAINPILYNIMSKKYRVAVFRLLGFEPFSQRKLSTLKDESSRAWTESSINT

Compound	Ki [1] [nM]	EC50 (rat pituitary cells) [nM]	Daily BW gain (mean of changes in daily body weight) [2]	Cumulative body weight (BW) gain ([2]; vs VH and NS)	Cumulative food intake (FI) ([2]; vs VH and NS)	Daily FI (mean of daily food ingestion) ([2]; vs VH and NS)
CNC(=O)[C@@H](Cc1ccccc1)N(C)C(=O)[C@@H](Cc1ccc2ccccc2c1)N(C)C(=O)/C=C/CC(C)(C)N [Tabimorelin]	50	2.7	–	–	–	–
TAB-SOCS3-ASO4: antisense sequence against socs3 mRNA directed with tabimorelin; 20-mer with 10 DNA core and 2′-o-methyl flanks (antisense GUGGCGCTGGTCCGAGCTGT; sugars from the 5' end m5 d10 m5, backbone and methylation of C not given here; tabimorelin conjugate attached)	–	–	not being significantly different between groups, a decrease was observed	gained significantly less weight than control animals	significantly decreased	decreased
